Assay results as given in patent publication US20040220164A1, “Triaza compound immunoregulatory agents” (priority 2001, published 2004).

Key:
[1] = test system: CD57; assay: Cell surface antigen expression by flow cytometry (Table 2); assay type: cell-based, human; details: CADA 16 μM, 4 days, percentage of positive cells, unit not given
Method: (§1) Expression of various other surface antigens was also examined in MT-4 cells, SupT1 cells and PBMCs after incubation with CADA (16 μM) or CADA-free medium at 37° C. for 4 days. After washing with phosphate-buffered saline (PBS) containing 2% FCS(fetal calf serum), the cells were incubated with mAb (as indicated in Table 1) for 20 min at 4° C. Then the cells were washed, fixed with 1% formaldehyde and analyzed by flow cytometry. All mAbs were purchased from Becton-Dickinson (Erembodegem, Belgium).

[2] = test system: CD26; assay: as above; assay type: cell-based, human; details: CADA 16 μM, 4 days, percentage of positive cells, unit not given
Method: as §1

[3] = test system: CD8; assay: as above; assay type: cell-based, human; details: CADA 16 μM, 4 days, percentage of positive cells, unit not given
Method: as §1

[4] = test system: CD71; assay: as above; assay type: cell-based, human; details: CADA 16 μM, 4 days, percentage of positive cells, unit not given
Method: as §1

[5] = test system: HLA-DR; assay: as above; assay type: cell-based, human; details: CADA 16 μM, 4 days, percentage of positive cells, unit not given
Method: as §1

[6] = test system: CD3; assay: as above; assay type: cell-based, human; details: CADA 16 μM, 4 days, percentage of positive cells, unit not given
Method: as §1

[7] = test system: CD45; assay: as above; assay type: cell-based, human; details: CADA 16 μM, 4 days, percentage of positive cells, unit not given
Method: as §1

[8] = test system: CD28; assay: as above; assay type: cell-based, human; details: CADA 16 μM, 4 days, percentage of positive cells, unit not given
Method: as §1

[9] = test system: TCRα/β; assay: as above; assay type: cell-based, human; details: CADA 16 μM, 4 days, percentage of positive cells, unit not given
Method: as §1

[10] = test system: CD11b; assay: as above; assay type: cell-based, human; details: CADA 16 μM, 4 days, percentage of positive cells, unit not given
Method: as §1

[11] = test system: CD38; assay: as above; assay type: cell-based, human; details: CADA 16 μM, 4 days, percentage of positive cells, unit not given
Method: as §1

[12] = test system: CD2; assay: as above; assay type: cell-based, human; details: CADA 16 μM, 4 days, percentage of positive cells, unit not given
Method: as §1

[13] = test system: CD25; assay: as above; assay type: cell-based, human; details: CADA 16 μM, 4 days, percentage of positive cells, unit not given
Method: as §1

[14] = test system: CD45RA; assay: as above; assay type: cell-based, human; details: CADA 16 μM, 4 days, percentage of positive cells, unit not given
Method: as §1

[15] = test system: CD5; assay: as above; assay type: cell-based, human; details: CADA 16 μM, 4 days, percentage of positive cells, unit not given
Method: as §1

[16] = biological target: CD4 (Homo sapiens, UniProt P01730); assay: Quantification of the CD4 receptor by antibody binding; assay type: cell-based; parameters: endogenous in cells; the paragraph deals with MT-4, SupT1 cells and PBMCs; details: after treatment with CADA
Method: Table 4 presents the results for MT-4 cells pretreated with CADA for 1 day at 8.1 μM and then infected with the HIV-1 strain NL4.3 or RF in the presence or absence of CADA. […] As three CD4 binding events are needed to efficiently activate HIV-1 Env trimers (Layne, S. P., et al., Nature 346: 602-605 (1990)), multimeric CD4 binding is required for HIV infection, further confirming that receptor density plays a crucial role in the efficiency of viral infectivity (Platt, E. J., et al., J. Virol. 71: 883-890 (1997)). […] Primary HIV isolates seem to be much more dependent on the level of CD4 expression (Kabat; D., et al., J. Virol. 68:2570-2577 (1994)). […] Although CD4-independent viruses are described (Hofflian, T. L., et al., Proc. Natl. Acad. Sci. U.S.A. 96: 63 59-6364 (1999)), these are much more sensitive to neutralization by antibodies, which explains the rarity of CD4-independent wild-type HIV variants (Kolchinski, P., et al., J. Virol. 75: 204 1-2050 (2001)).

C=C1CN(S(=O)(=O)c2ccc(C)cc2)CCCN(Cc2ccccc2)CCCN(S(=O)(=O)c2ccc(C)cc2)C1 [CADA]
CD57 cell surface antigen expression ([1]; MT-4 T-cells): 1.5
CD57 cell surface antigen expression ([1]; PBMCs): 2.3
CD57 cell surface antigen expression ([1]; SupT1 T-cells): 82.4
CD26 cell surface antigen expression ([2]; MT-4 T-cells): 3.2
CD26 cell surface antigen expression ([2]; PBMCs): 3.2
CD26 cell surface antigen expression ([2]; SupT1 T-cells): 0.3
CD8 cell surface antigen expression ([3]; MT-4 T-cells): 3.5
CD8 cell surface antigen expression ([3]; PBMCs): 25.1
CD8 cell surface antigen expression ([3]; SupT1 T-cells): 92.3
CD71 cell surface antigen expression ([4]; MT-4 T-cells): 98.8
CD71 cell surface antigen expression ([4]; PBMCs): 27.6
CD71 cell surface antigen expression ([4]; SupT1 T-cells): 33.9
HLA-DR cell surface antigen expression ([5]; MT-4 T-cells): 98.7
HLA-DR cell surface antigen expression ([5]; PBMCs): 27
HLA-DR cell surface antigen expression ([5]; SupT1 T-cells): 1.7
CD3 cell surface antigen expression ([6]; MT-4 T-cells): 5.9
CD3 cell surface antigen expression ([6]; PBMCs): 89.4
CD3 cell surface antigen expression ([6]; SupT1 T-cells): 2.7
CD45 cell surface antigen expression ([7]; MT-4 T-cells): 3.57
CD45 cell surface antigen expression ([7]; PBMCs): 98.3
CD45 cell surface antigen expression ([7]; SupT1 T-cells): 99.6
CD28 cell surface antigen expression ([8]; MT-4 T-cells): 6.6
CD28 cell surface antigen expression ([8]; PBMCs): 89.6
CD28 cell surface antigen expression ([8]; SupT1 T-cells): 90.8
TCRα/β cell surface antigen expression ([9]; MT-4 T-cells): 1.1
TCRα/β cell surface antigen expression ([9]; PBMCs): 82.3
TCRα/β cell surface antigen expression ([9]; SupT1 T-cells): 1.6
CD11b cell surface antigen expression ([10]; MT-4 T-cells): 9.7
CD11b cell surface antigen expression ([10]; PBMCs): 12.3
CD11b cell surface antigen expression ([10]; SupT1 T-cells): 0.6
CD38 cell surface antigen expression ([11]; MT-4 T-cells): 84.5
CD38 cell surface antigen expression ([11]; PBMCs): 73.2
CD38 cell surface antigen expression ([11]; SupT1 T-cells): 99.1
CD2 cell surface antigen expression ([12]; MT-4 T-cells): 2.6
CD2 cell surface antigen expression ([12]; PBMCs): 90.7
CD2 cell surface antigen expression ([12]; SupT1 T-cells): 0.5
CD25 cell surface antigen expression ([13]; MT-4 T-cells): 93.3
CD25 cell surface antigen expression ([13]; PBMCs): 35.5
CD25 cell surface antigen expression ([13]; SupT1 T-cells): 1
CD45RA cell surface antigen expression ([14]; MT-4 T-cells): 2.0
CD45RA cell surface antigen expression ([14]; PBMCs): 64.3
CD45RA cell surface antigen expression ([14]; SupT1 T-cells): 0.5
CD5 cell surface antigen expression ([15]; MT-4 T-cells): 99.1
CD5 cell surface antigen expression ([15]; PBMCs): 80.6
CD5 cell surface antigen expression ([15]; SupT1 T-cells): 93.9
amount of CD4 Ab bound to the cells [16]: approximately 5,000 /cell
decrease in bound antibody [16]: ~90%
